This note sets out measurements from paper PMC7988358, “Characterization of GMPP from Dendrobium huoshanense yielding GDP-D-mannose” (Open Life Sciences, 2021).

The structures appear in SMILES notation.

This test addresses T1, DhGMPP (Dendrobium huoshanense, UniProt A0A348HAW3).
T1 construct: gene GMPP; E. coli BL21-AI crude soluble extract, not purified
T1 sequence (A0A348HAW3 1-415): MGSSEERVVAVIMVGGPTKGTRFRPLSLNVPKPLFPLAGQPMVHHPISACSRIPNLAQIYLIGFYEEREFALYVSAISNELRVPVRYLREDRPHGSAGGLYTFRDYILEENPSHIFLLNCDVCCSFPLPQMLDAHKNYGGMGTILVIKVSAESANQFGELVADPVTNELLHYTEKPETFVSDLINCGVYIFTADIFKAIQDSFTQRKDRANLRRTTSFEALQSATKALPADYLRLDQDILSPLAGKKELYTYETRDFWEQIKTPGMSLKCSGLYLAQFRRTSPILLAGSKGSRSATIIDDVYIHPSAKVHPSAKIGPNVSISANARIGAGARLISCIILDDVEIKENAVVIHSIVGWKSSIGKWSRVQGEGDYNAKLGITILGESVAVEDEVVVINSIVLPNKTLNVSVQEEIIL
Briefly: HPLC ([…] nm) detection of GDP-mannose formed. The format is biochemical. Particulars: 2.5 mM GTP, 5 mM MgCl2, 50 mM Tris-HCl pH 7.4, 37 °C, 10 min, crude E. coli extract, untransformed-host extract and boiled protein as controls.

Consider `Nc1nc2c(ncn2[C@@H]2O[C@H](COP(=O)(O)OP(=O)(O)OP(=O)(O)O)[C@@H](O)[C@H]2O)c(=O)[nH]1` [GTP], for which the “HPLC (254 nm) detection of GDP-mannose formed” value (5 mM α-D-mannose-phosphate) is “By utilizing GTP and α-D-mannose-phosphate as substrates, DhGMPP catalyzes the reaction to yield GDP-mannose”.
Consider `O=P(O)(O)O[C@H]1O[C@H](CO)[C@@H](O)[C@H](O)[C@@H]1O` [α-D-mannose-phosphate], for which the “HPLC (254 nm) detection of GDP-mannose formed” value (5 mM substrate) is “By utilizing GTP and α-D-mannose-phosphate as substrates, DhGMPP catalyzes the reaction to yield GDP-mannose”.
